# From BigSolDB 2.1
compound,measurement,setting,value
Cc1cccc(C(=O)O)c1N,solubility (mole fraction),"in 1,4-dioxane, 288.15 K",0.108
same,solubility (mole fraction),"in 1,4-dioxane, 293.15 K",0.117
same,solubility (mole fraction),"in 1,4-dioxane, 298.15 K",0.127
same,solubility (mole fraction),"in 1,4-dioxane, 303.15 K",0.137
same,solubility (mole fraction),"in 1,4-dioxane, 308.15 K",0.148
same,solubility (mole fraction),"in 1,4-dioxane, 313.15 K",0.159
same,solubility (mole fraction),"in 1,4-dioxane, 318.15 K",0.171
same,solubility (mole fraction),"in 2-butanone, 278.15 K",0.0646
same,solubility (mole fraction),"in 2-butanone, 283.15 K",0.0721
same,solubility (mole fraction),"in 2-butanone, 288.15 K",0.0792
same,solubility (mole fraction),"in 2-butanone, 293.15 K",0.0872
same,solubility (mole fraction),"in 2-butanone, 298.15 K",0.0953
same,solubility (mole fraction),"in 2-butanone, 303.15 K",0.104
same,solubility (mole fraction),"in 2-butanone, 308.15 K",0.114
same,solubility (mole fraction),"in 2-butanone, 313.15 K",0.124
same,solubility (mole fraction),"in 2-butanone, 318.15 K",0.134
same,solubility (mole fraction),"in acetone, 278.15 K",0.0745
same,solubility (mole fraction),"in acetone, 283.15 K",0.0829
same,solubility (mole fraction),"in acetone, 288.15 K",0.0918
same,solubility (mole fraction),"in acetone, 293.15 K",0.101
same,solubility (mole fraction),"in acetone, 298.15 K",0.111
same,solubility (mole fraction),"in acetone, 303.15 K",0.121
same,solubility (mole fraction),"in acetone, 308.15 K",0.132
same,solubility (mole fraction),"in acetone, 313.15 K",0.143
same,solubility (mole fraction),"in acetone, 318.15 K",0.154
same,solubility (mole fraction),"in acetonitrile, 278.15 K",0.0227
same,solubility (mole fraction),"in acetonitrile, 283.15 K",0.0275
same,solubility (mole fraction),"in acetonitrile, 288.15 K",0.0329
same,solubility (mole fraction),"in acetonitrile, 293.15 K",0.039
same,solubility (mole fraction),"in acetonitrile, 298.15 K",0.0461
same,solubility (mole fraction),"in acetonitrile, 303.15 K",0.054
same,solubility (mole fraction),"in acetonitrile, 308.15 K",0.0628
same,solubility (mole fraction),"in acetonitrile, 313.15 K",0.0727
same,solubility (mole fraction),"in acetonitrile, 318.15 K",0.0834
same,solubility (mole fraction),"in cyclohexane, 283.15 K",8.89e-05
same,solubility (mole fraction),"in cyclohexane, 288.15 K",0.000115
same,solubility (mole fraction),"in cyclohexane, 293.15 K",0.000153
same,solubility (mole fraction),"in cyclohexane, 298.15 K",0.000204
same,solubility (mole fraction),"in cyclohexane, 303.15 K",0.00027
same,solubility (mole fraction),"in cyclohexane, 308.15 K",0.00035
same,solubility (mole fraction),"in cyclohexane, 313.15 K",0.000454
same,solubility (mole fraction),"in cyclohexane, 318.15 K",0.000578
same,solubility (mole fraction),"in ethanol, 278.15 K",0.0176
same,solubility (mole fraction),"in ethanol, 283.15 K",0.0208
same,solubility (mole fraction),"in ethanol, 288.15 K",0.0244
same,solubility (mole fraction),"in ethanol, 293.15 K",0.0286
same,solubility (mole fraction),"in ethanol, 298.15 K",0.0333
same,solubility (mole fraction),"in ethanol, 303.15 K",0.0385
same,solubility (mole fraction),"in ethanol, 308.15 K",0.0444
same,solubility (mole fraction),"in ethanol, 313.15 K",0.0509
same,solubility (mole fraction),"in ethanol, 318.15 K",0.0582
same,solubility (mole fraction),"in ethyl acetate, 278.15 K",0.0294
same,solubility (mole fraction),"in ethyl acetate, 283.15 K",0.0345
same,solubility (mole fraction),"in ethyl acetate, 288.15 K",0.0405
same,solubility (mole fraction),"in ethyl acetate, 293.15 K",0.0469
same,solubility (mole fraction),"in ethyl acetate, 298.15 K",0.054
same,solubility (mole fraction),"in ethyl acetate, 303.15 K",0.0619
same,solubility (mole fraction),"in ethyl acetate, 308.15 K",0.0704
same,solubility (mole fraction),"in ethyl acetate, 313.15 K",0.0803
same,solubility (mole fraction),"in ethyl acetate, 318.15 K",0.0907
same,solubility (mole fraction),"in isopropanol, 278.15 K",0.00876
same,solubility (mole fraction),"in isopropanol, 283.15 K",0.0109
same,solubility (mole fraction),"in isopropanol, 288.15 K",0.0138
same,solubility (mole fraction),"in isopropanol, 293.15 K",0.017
same,solubility (mole fraction),"in isopropanol, 298.15 K",0.0208
same,solubility (mole fraction),"in isopropanol, 303.15 K",0.0253
same,solubility (mole fraction),"in isopropanol, 308.15 K",0.0303
same,solubility (mole fraction),"in isopropanol, 313.15 K",0.036
same,solubility (mole fraction),"in isopropanol, 318.15 K",0.0427
same,solubility (mole fraction),"in methanol, 278.15 K",0.02
same,solubility (mole fraction),"in methanol, 283.15 K",0.0235
same,solubility (mole fraction),"in methanol, 288.15 K",0.0273
same,solubility (mole fraction),"in methanol, 293.15 K",0.0317
same,solubility (mole fraction),"in methanol, 298.15 K",0.0367
same,solubility (mole fraction),"in methanol, 303.15 K",0.0423
same,solubility (mole fraction),"in methanol, 308.15 K",0.0483
same,solubility (mole fraction),"in methanol, 313.15 K",0.055
same,solubility (mole fraction),"in methanol, 318.15 K",0.0624
same,solubility (mole fraction),"in n-butanol, 278.15 K",0.0117
same,solubility (mole fraction),"in n-butanol, 283.15 K",0.0144
same,solubility (mole fraction),"in n-butanol, 288.15 K",0.0176
same,solubility (mole fraction),"in n-butanol, 293.15 K",0.0212
same,solubility (mole fraction),"in n-butanol, 298.15 K",0.0254
same,solubility (mole fraction),"in n-butanol, 303.15 K",0.0302
same,solubility (mole fraction),"in n-butanol, 308.15 K",0.0357
same,solubility (mole fraction),"in n-butanol, 313.15 K",0.0422
same,solubility (mole fraction),"in n-butanol, 318.15 K",0.0498
same,solubility (mole fraction),"in n-propanol, 278.15 K",0.0151
same,solubility (mole fraction),"in n-propanol, 283.15 K",0.0178
same,solubility (mole fraction),"in n-propanol, 288.15 K",0.0212
same,solubility (mole fraction),"in n-propanol, 293.15 K",0.0251
same,solubility (mole fraction),"in n-propanol, 298.15 K",0.0293
same,solubility (mole fraction),"in n-propanol, 303.15 K",0.0344
same,solubility (mole fraction),"in n-propanol, 308.15 K",0.04
same,solubility (mole fraction),"in n-propanol, 313.15 K",0.046
same,solubility (mole fraction),"in n-propanol, 318.15 K",0.0532
same,solubility (mole fraction),"in toluene, 278.15 K",0.0011
same,solubility (mole fraction),"in toluene, 283.15 K",0.00145
same,solubility (mole fraction),"in toluene, 288.15 K",0.00184
same,solubility (mole fraction),"in toluene, 293.15 K",0.00235
same,solubility (mole fraction),"in toluene, 298.15 K",0.00298
same,solubility (mole fraction),"in toluene, 303.15 K",0.00382
same,solubility (mole fraction),"in toluene, 308.15 K",0.0049
same,solubility (mole fraction),"in toluene, 313.15 K",0.00619
same,solubility (mole fraction),"in toluene, 318.15 K",0.00797
